pIC50: −log10 of the molar value.
Molecular target: human PCSK9 (Homo sapiens, UniProt Q8NBP7)
Experiment: PCSK9 ligand binding TR-FRET assay (interference with binding of human PCSK9 to human LDLR)
Details: for Max % inhibition: PCSK9 FRET assay, efficacy (Amax), 100% = 1 uM unlabeled human PCSK9, 0% = DMSO; for pIC50: TR-FRET, human PCSK9 Alexa Fluor 647 / human LDLR extracellular domain-Europium Kryptate, read-out: PCSK9 FRET Assay IC50
Summary of the method: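 Threefold compound dilutions were pre-incubated 30 min with PCSK9, after which 4 nM Europium Kryptate-tagged human LDLR ectodomain was added for a further 2 h.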

human PCSK9, sequence (Q8NBP7 153-692): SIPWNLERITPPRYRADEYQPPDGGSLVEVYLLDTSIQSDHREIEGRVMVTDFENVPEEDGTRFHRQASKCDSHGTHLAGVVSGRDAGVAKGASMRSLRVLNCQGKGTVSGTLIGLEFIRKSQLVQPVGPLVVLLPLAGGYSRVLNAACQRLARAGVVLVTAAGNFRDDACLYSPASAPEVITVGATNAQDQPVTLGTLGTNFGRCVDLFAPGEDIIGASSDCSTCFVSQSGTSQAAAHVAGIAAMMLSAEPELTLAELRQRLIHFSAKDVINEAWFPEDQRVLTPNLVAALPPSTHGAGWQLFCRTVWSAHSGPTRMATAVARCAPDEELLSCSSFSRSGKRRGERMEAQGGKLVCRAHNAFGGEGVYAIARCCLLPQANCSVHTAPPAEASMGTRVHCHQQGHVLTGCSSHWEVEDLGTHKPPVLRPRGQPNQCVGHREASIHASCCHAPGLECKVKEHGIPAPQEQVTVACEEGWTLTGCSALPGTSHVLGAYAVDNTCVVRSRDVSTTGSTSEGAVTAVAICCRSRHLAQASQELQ
human PCSK9, sequence (Q8NBP7 31-152 partner limits assumed): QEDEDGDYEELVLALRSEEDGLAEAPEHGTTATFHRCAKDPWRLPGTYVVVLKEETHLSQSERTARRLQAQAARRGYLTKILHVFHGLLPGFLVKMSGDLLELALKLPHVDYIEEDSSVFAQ

Row | SMILES | Max % inhibition [%] | pIC50
1 | C[C@H]1CNC(=O)C[C@H](Cc2ccc(Cl)cc2)N(C)C(=O)[C@H](CCF)NC(=O)[C@H](C)N(Cc2ccc(Cl)cc2Oc2ccc(-c3cnc(CN4CCCC4)n3C)cc2)C(=O)C[C@@H](Cc2ccccc2)C(=O)N1C [Compound 257, (2S,5S,8S,13S,16R)-16-benzyl-1-(4-chloro-2-(4-(1-methyl-2-(pyrrolidin-1-ylmethyl)-1H-imidazol-5-yl)phenoxy)benzyl)-8-(4-chlorobenzyl)-5-(2-fluoroethyl)-2,7,13,14-tetramethyl-1,4,7,11,14-pentaazacyclooctadecane-3,6,10,15,18-pentaone] | 50.23 | 7.67
2 | CCC[C@@H]1CC(=O)N(Cc2ccc(Cl)cc2Oc2ccc(-c3cnc(CN(C)C)n3C)cc2)[C@@H](C)C(=O)N[C@@H](COC)C(=O)N(C)[C@@H](Cc2ccc(Cl)cc2)CC(=O)N[C@H]2CCCC[C@@H]2N(C)C1=O [Compound 263, (4S,7S,10S,14R,16aS,20aS)-11-(4-chloro-2-(4-(2-((dimethylamino)methyl)-1-methyl-1H-imidazol-5-yl)phenoxy)benzyl)-4-(4-chlorobenzyl)-7-(methoxymethyl)-5,10,16-trimethyl-14-propylhexadecahydrobenzo[l][1,4,7,11,14]pentaazacyclooctadecine-2,6,9,12,15(3H)-pentaone] | 76.79 | 8.28
3 | COC[C@@H]1NC(=O)[C@H](C)N(Cc2ccc(Cl)cc2Oc2ccc(-n3cnc(CN4CCOCC4)c3C)cc2)C(=O)C[C@@H](Cc2ccccc2)C(=O)N(C)[C@H]2CCCC[C@@H]2NC(=O)C[C@H](Cc2ccc(Cl)cc2)N(C)C1=O [Compound 266, (4S,7S,10S,14R,16aS,20aS)-14-benzyl-11-(4-chloro-2-(4-(5-methyl-4-(morpholinomethyl)-1H-imidazol-1-yl)phenoxy)benzyl)-4-(4-chlorobenzyl)-7-(methoxymethyl)-5,10,16-trimethylhexadecahydrobenzo[l][1,4,7,11,14]pentaazacyclooctadecine-2,6,9,12,15(3H)-pentaone] | 106.30 | 8.72
4 | COC[C@@H]1NC(=O)[C@H](CC(=O)N(C)C)N(Cc2ccc(Cl)cc2Oc2ccc(-c3cnc(CN(C)C)n3C)cc2)C(=O)C[C@@H](Cc2ccccc2)C(=O)N(C)[C@H]2CCCC[C@@H]2NC(=O)C[C@H](Cc2ccc(Cl)cc2)N(C)C1=O [Compound 269, 2-((4S,7S,10S,14R,16aS,20aS)-14-benzyl-11-(4-chloro-2-(4-(2-((dimethylamino)methyl)-1-methyl-1H-imidazol-5-yl)phenoxy)benzyl)-4-(4-chlorobenzyl)-7-(methoxymethyl)-5,16-dimethyl-2,6,9,12,15-pentaoxodocosahydrobenzo[l][1,4,7,11,14]pentaazacyclooctadecin-10-yl)-N,N-dimethylacetamide] | 97.18 | 8.89
5 | COC[C@@H]1NC(=O)[C@H](C)N(Cc2ccc(Cl)cc2Oc2ccc(-n3cnc([C@@H](C)N(C)C)c3C)cc2)C(=O)C[C@@H](Cc2ccccc2)C(=O)N(C)[C@@H](C)[C@H](C)NC(=O)C[C@H](Cc2ccc(Cl)cc2)N(C)C1=O [Compound 270, (2S,5S,8S,12S,13S,16R)-16-benzyl-1-(4-chloro-2-(4-(4-((R)-1-(dimethylamino)ethyl)-5-methyl-1H-imidazol-1-yl)phenoxy)benzyl)-8-(4-chlorobenzyl)-5-(methoxymethyl)-2,7,12,13,14-pentamethyl-1,4,7,11,14-pentaazacyclooctadecane-3,6,10,15,18-pentaone] | 106.63 | 8.57
6 | COC[C@@H]1NC(=O)[C@H](C)N(Cc2ccc(Cl)cc2Oc2ccc(-c3cnc(C4=CCOCC4)n3C)cc2)C(=O)C[C@@H](Cc2ccccc2)C(=O)N(C)[C@@H](C)CNC(=O)C[C@H](Cc2ccc(Cl)cc2)N(C)C1=O [Compound 271, (2S,5S,8S,13S,16R)-16-benzyl-1-(4-chloro-2-(4-(2-(3,6-dihydro-2H-pyran-4-yl)-1-methyl-1H-imidazol-5-yl)phenoxy)benzyl)-8-(4-chlorobenzyl)-5-(methoxymethyl)-2,7,13,14-tetramethyl-1,4,7,11,14-pentaazacyclooctadecane-3,6,10,15,18-pentaone] | 84.13 | 8.16

The remaining molecules from weak to strong by pIC50, led by results:

Row | Max % inhibition [%] | pIC50 | SMILES
7 | 97.63 | 6.69 | COC[C@@H]1NC(=O)[C@H](C)N(Cc2ccc(Cl)cc2Oc2ccc(-c3cnc(CN(C)C)n3C)cc2)C(=O)C[C@H]2C(=O)N(C)[C@@H](CNC(=O)C[C@H](Cc3ccc(Cl)cc3)N(C)C1=O)C(=O)N2C [Compound 262, (1S,6S,9S,12S,16S)-13-(4-chloro-2-(4-(2-((dimethylamino)methyl)-1-methyl-1H-imidazol-5-yl)phenoxy)benzyl)-6-(4-chlorobenzyl)-9-(methoxymethyl)-7,12,17,19-tetramethyl-3,7,10,13,17,19-hexaazabicyclo[14.2.2]icosane-4,8,11,14,18,20-hexaone]
8 | 68.37 | 8.03 | CC[C@H](c1ncc(-c2ccc(Oc3cc(Cl)ccc3CN3C(=O)C[C@@H](Cc4ccccc4)C(=O)N(C)[C@H]4CCCC[C@@H]4NC(=O)C[C@H](Cc4ccc(Cl)cc4)N(C)C(=O)[C@H](COC)NC(=O)[C@@H]3C)cc2)n1C)N(C)C [Compound 268, (4S,7S,10S,14R,16aS,20aS)-14-benzyl-11-(4-chloro-2-(4-(2-((R)-1-(dimethylamino)propyl)-1-methyl-1H-imidazol-5-yl)phenoxy)benzyl)-4-(4-chlorobenzyl)-7-(methoxymethyl)-5,10,16-trimethylhexadecahydrobenzo[l][1,4,7,11,14]pentaazacyclooctadecine-2,6,9,12,15(3H)-pentaone]
9 | 93.76 | 8.15 | CCOC(=O)CCCN(CCCC(=O)OCC)CCC[C@H]1C(=O)N[C@@H](COC)C(=O)N(C)[C@@H](Cc2ccc(Cl)cc2)CC(=O)N[C@H]2CCCC[C@@H]2N(C)C(=O)[C@H](Cc2ccccc2)CC(=O)N1Cc1ccc(Cl)cc1Oc1ccc(-c2cnc(CN(C)C)n2C)cc1 [Compound 267, diethyl 4,4′-((3-((4S,7S,10S,14R,16aS,20aS)-14-benzyl-11-(4-chloro-2-(4-(2-((dimethylamino)methyl)-1-methyl-1H-imidazol-5-yl)phenoxy)benzyl)-4-(4-chlorobenzyl)-7-(methoxymethyl)-5,16-dimethyl-2,6,9,12,15-pentaoxodocosahydrobenzo[l][1,4,7,11,14]pentaazacyclooctadecin-10-yl)propyl)azanediyl)dibutanoate]
10 | 98.94 | 8.37 | COC[C@@H]1NC(=O)[C@H](C)N(Cc2ccc(Cl)cc2Oc2ccc(-c3cnc(CN(C)C)n3C)cc2)C(=O)C[C@@H](Cc2c(F)ccc(F)c2F)C(=O)N(C)[C@@H](C)CNC(=O)C[C@H](Cc2ccc(Cl)cc2)N(C)C1=O [Compound 258, (2S,5S,8S,13S,16R)-1-(4-chloro-2-(4-(2-((dimethylamino)methyl)-1-methyl-1H-imidazol-5-yl)phenoxy)benzyl)-8-(4-chlorobenzyl)-5-(methoxymethyl)-2,7,13,14-tetramethyl-16-(2,3,6-trifluorobenzyl)-1,4,7,11,14-pentaazacyclooctadecane-3,6,10,15,18-pentaone]
11 | 108.15 | 8.49 | COC[C@@H]1NC(=O)[C@H](C)N(Cc2ccc(Cl)cc2Oc2ccc(-n3cnc(CN4CCCC4)c3C)cc2)C(=O)C[C@@H](Cc2ccccc2)C(=O)N(C)[C@@H](C)CNC(=O)C[C@H](Cc2ccc(Cl)cc2)N(C)C1=O [Compound 259, (2S,5S,8S,13S,16R)-16-benzyl-1-(4-chloro-2-(4-(5-methyl-4-(pyrrolidin-1-ylmethyl)-1H-imidazol-1-yl)phenoxy)benzyl)-8-(4-chlorobenzyl)-5-(methoxymethyl)-2,7,13,14-tetramethyl-1,4,7,11,14-pentaazacyclooctadecane-3,6,10,15,18-pentaone]
12 | 109.05 | 8.68 | Cc1c(CN2CCCC2)ncn1-c1ccc(Oc2cc(Cl)ccc2CN2C(=O)C[C@@H](Cc3ccccc3)C(=O)N(C)[C@H]3CCCC[C@@H]3NC(=O)C[C@H](Cc3ccc(Cl)cc3)N(C)C(=O)[C@H](CO)NC(=O)[C@@H]2C)cc1 [Compound 260, (4S,7S,10S,14R,16aS,20aS)-14-benzyl-11-(4-chloro-2-(4-(5-methyl-4-(pyrrolidin-1-ylmethyl)-1H-imidazol-1-yl)phenoxy)benzyl)-4-(4-chlorobenzyl)-7-(hydroxymethyl)-5,10,16-trimethylhexadecahydrobenzo[l][1,4,7,11,14]pentaazacyclooctadecine-2,6,9,12,15(3H)-pentaone]
13 | 111.41 | 8.70 | COC[C@@H]1NC(=O)[C@H](C)N(Cc2ccc(Cl)cc2Oc2ccc(-c3cnc([C@@H](C)N(C)C)n3C)cc2)C(=O)C[C@@H](Cc2ccccc2)C(=O)N(C)[C@@H](C)[C@H](C)NC(=O)C[C@H](Cc2ccc(Cl)cc2)N(C)C1=O [Compound 261, (2S,5S,8S,12S,13S,16R)-16-benzyl-1-(4-chloro-2-(4-(2-((R)-1-(dimethylamino)ethyl)-1-methyl-1H-imidazol-5-yl)phenoxy)benzyl)-8-(4-chlorobenzyl)-5-(methoxymethyl)-2,7,12,13,14-pentamethyl-1,4,7,11,14-pentaazacyclooctadecane-3,6,10,15,18-pentaone]
14 | 98.30 | 8.92 | COC[C@@H]1NC(=O)[C@H](CCCN2CCOCC2)N(Cc2ccc(Cl)cc2Oc2ccc(-c3cnc(CN(C)C)n3C)cc2)C(=O)C[C@@H](Cc2ccccc2)C(=O)N(C)[C@H]2CCCC[C@@H]2NC(=O)C[C@H](Cc2ccc(Cl)cc2)N(C)C1=O [Compound 272, (4S,7S,10S,14R,16aS,20aS)-14-benzyl-11-(4-chloro-2-(4-(2-((dimethylamino)methyl)-1-methyl-1H-imidazol-5-yl)phenoxy)benzyl)-4-(4-chlorobenzyl)-7-(methoxymethyl)-5,16-dimethyl-10-(3-morpholinopropyl)hexadecahydrobenzo[l][1,4,7,11,14]pentaazacyclooctadecine-2,6,9,12,15(3H)-pentaone]
